Measured values published in patent US11279733B2, “Peptide antibiotics” (priority 2017, dated 2022).
In brackets after ≈: the same amount, converted by molar mass. Positions of bridges follow the written chain, without caps; N, C: chain ends. Non-standard residues stand in square brackets, D forms with d. Residues, ends and D or L forms follow the SMILES beside them. *: point of attachment. Decanoyl(3R-OH) = CCCCCCC[C@@H](O)CC(=O)*; Phe(4-NH2) = Nc1ccc(C[C@H](N)C(=O)O)cc1; dDab = NCC[C@@H](N)C(=O)O; dDap = NC[C@@H](N)C(=O)O; Dab = NCC[C@H](N)C(=O)O

Legend:
[1] = in vitro; settings: human
Method in brief: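 Fluorescence read-out (excitation 560, emission 590) after a 2 h, 37 °C incubation with 5 μM resazurin, following 24 h compound treatment of cells plated at 4000 per well. CC50 values come from fitting dose–response curves of growth inhibition.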

[2] = in vitro; settings: human; remark: listed apart in the source
Method in brief: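 HK2 cells were seeded at 2000 per well in DMEM/F12 with 10% FBS and left to attach for 24 h at 37 °C, 5% CO2. They were then exposed for 24 h to 3-fold peptide dilutions starting from 600 μM solutions in quadruplicate. LDH release was read at 450 nm, and CC50 was fitted from dose-response curves.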

[3] = in vitro; settings: human; remark: listed apart in the source
Procedure: Cytotoxicity of the synthesised peptides was evaluated by comparison with commercially available colistin (polymyxin E), polymyxin B (Sigma chemical Co., St. Louis, Mo., U.S.A.) and synthetic octapeptin C4 by conducting lactate dehydrogenase (LDH) assay. CC50 values calculated based on curve fitting of dose dependent inhibition of cell growth represented the cytotoxicity of the peptide. Human kidney 2 (HK2) cells were seeded as 2000 cells per well in a 384 well cell culture plate in a final volume of 20 μL in DMEM/F12 medium (Invitrogen #11330057), in which 10% of FBS was added. Cells were incubated for 24 hours at 37° C., 5% CO2 to allow cells to attach to the plates. Similar conditions were employed for HEK293 and HepG2 cytotoxicity assays.
Cytotoxicity to HEK293 and HepG2 cells was determined using the resazurin assay (McMillian, M. K.; Li, L.; Parker, J. B.; Patel, L.; Zhong, Z.; Gunnett, J. W.; Powers, W. J.; Johnson, M. D. An improved resazurin-based cytotoxicity assay for hepatic cells; Cell Biol. Toxicol. 2002, 18, 157-173; O'Brien, J.; Wilson, I.; Orton, T.; Pognan, F. Investigation of the Alamar Blue (resazurin) fluorescent dye for the assessment of mammalian cell cytotoxicity. Eur. J. Biochem. 2000, 267, 5421-5426). In brief, HEK293 and HepG2 cells were seeded at 4000 cells/well in black-wall, clear-bottom 384-well plates (Corning, Australia) and incubated for 24 h at 37° C., 5% CO2. Compounds were then added into each well. After 24 h incubation, 5 μM resazurin was added per well and incubated at 37° C. for 2 h. Fluorescence intensity was then read using a Polarstar Omega with excitation/emission 560/590. The data was then analyzed using GraphPad Prism 6 software. CC50 values were determined using GraphPad Prism 6 software (Inc. La Jolla, Calif.).

[4] = system: A. baumannii ATCC 19606; settings: ATCC 19606
Method in brief: (§1)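 Mid-log cultures grown in Mueller Hinton broth at 37° C were tested by 2-fold broth microdilution at 5×10^5 CFU/mL final. Compounds were dissolved in water and tested over a final range of 32 to 0.015 μg/mL.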

[5] = system: K. pneumoniae ATCC BAA-2146, NDM-1 pos; settings: ATCC BAA-2146
Method in brief: as §1

[6] = system: K. pneumoniae GN_106, PmxR; settings: GN 106, PmxR
Method in brief: as §1

[7] = system: K. pneumoniae GN_102 PmxR; settings: GN 102 PmxR
Method in brief: as §1

[8] = system: K. pneumoniae ATCC 700603, MDR; settings: ATCC 700603
Method in brief: as §1

[9] = system: E. coli ATCC 25922; settings: ATCC 25922
Method in brief: as §1

[10] = system: P. aeruginosa ATCC 27853; settings: ATCC 27853
Method in brief: as §1

[11] = system: A. baumannii GN_093 PmxR; settings: GN 093 PmxR
Method in brief: as §1

[12] = system: K. pneumoniae ATCC 13883; settings: ATCC 13883
Method in brief: as §1

[13] = system: S. aureus ATCC 25923, MSSA; settings: ATCC 25923
Method in brief: as §1

[14] = system: P. aeruginosa GN_043, PmxR
Method in brief: as §1

[15] = system: P. aeruginosa GN_105, PmxR; settings: GN 105, PmxR
Method in brief: as §1

Compound | CC50 at 24 h [1] | CC50 at 24 h [2] | CC50 at 24 h [3] | MIC A. baumannii ATCC 19606 [4] | MIC K. pneumoniae ATCC BAA-2146, NDM-1 pos [5] | MIC K. pneumoniae GN_106, PmxR [6] | MIC K. pneumoniae GN_102 PmxR [7] | MIC K. pneumoniae ATCC 700603, MDR [8] | MIC E. coli ATCC 25922 [9] | MIC P. aeruginosa ATCC 27853 [10] | MIC A. baumannii GN_093 PmxR [11] | MIC K. pneumoniae ATCC 13883 [12] | MIC S. aureus ATCC 25923, MSSA [13] | MIC P. aeruginosa GN_043, PmxR [14] | MIC P. aeruginosa GN_105, PmxR [15] | other results
CCCCCCC[C@@H](O)CC(=O)N[C@H](CN)C(=O)N[C@H]1CCNC(=O)[C@H](CC(C)C)NC(=O)[C@H](CCN)NC(=O)[C@H](CCN)NC(=O)[C@H](Cc2ccccc2)NC(=O)[C@@H](CC(C)C)NC(=O)[C@H](CCN)NC1=O [compound 6427, 3(R)OH-nC9CO-D-Dap-cyc[L-Dab-L-Dab-D-Leu-L-Phe-L-Dab-L-Dab-L-Leu]] ({Decanoyl(3R-OH)}-[dDap][Dab][Dab][dL]F[Dab][Dab]L; lactam 2-C) | > 300 µM | 123 µM | > 300 µM | 8 µg/mL (≈ 7.76 µM) | 8 µg/mL (≈ 7.76 µM) | 4 µg/mL (≈ 3.88 µM) | 4 µg/mL (≈ 3.88 µM) | 8 µg/mL (≈ 7.76 µM) | 8 µg/mL (≈ 7.76 µM) | 4 µg/mL (≈ 3.88 µM) | 16 µg/mL (≈ 15.5 µM) | 8 µg/mL (≈ 7.76 µM) | 32 µg/mL (≈ 31.1 µM) | 4 µg/mL (≈ 3.88 µM) | 2 µg/mL (≈ 1.94 µM) | 
CCCCCCC[C@@H](O)CC(=O)N[C@H](CCN)C(=O)N[C@H]1CCNC(=O)[C@H](CC(C)C)NC(=O)[C@H](CCN)NC(=O)[C@H](CCN)NC(=O)[C@H](CC(C)C)NC(=O)[C@@H](Cc2ccccc2)NC(=O)[C@H](Cc2ccc(N)cc2)NC1=O [compound 8635, 3(R)OH-nC9CO-D-Dab-cyc[L-Dab-L-4NH2Phe-D-Phe-L-Leu-L-Dab-L-Dab-L-Leu]] ({Decanoyl(3R-OH)}-[dDab][Dab][Phe(4-NH2)][dF]L[Dab][Dab]L; lactam 2-C) | > 300 µM | 219 µM | > 300 µM |  |  |  |  |  |  |  |  |  |  |  |  | MIC, A. baumannii ATCC 19606 [4]: >32 µg/mL; MIC, K. pneumoniae ATCC BAA-2146, NDM-1 pos [5]: 16 µg/mL (≈ 14.5 µM); MIC, K. pneumoniae Cl 138-16347-20362, PmxR [6]: >32 µg/mL; MIC, K. pneumoniae Cl Koprana 10065 0661:1, PmxR [7]: >32 µg/mL; MIC, K. pneumoniae ATCC 700603, MDR [8]: 32 µg/mL (≈ 28.9 µM); MIC, E. coli ATCC 25922 [9]: 16 µg/mL (≈ 14.5 µM); MIC, P. aeruginosa ATCC 27853 [10]: 16 µg/mL (≈ 14.5 µM); MIC, A. baumannii Cl Ptyela 10073 4512:2, PmxR [11]: >32 µg/mL; MIC, K. pneumoniae ATCC 13883 [12]: >32 µg/mL; MIC, S. Aureus ATCC 25923, MSSA [13]: 32 µg/mL (≈ 28.9 µM); MIC, P. aeruginosa FADDI-PA070, PmxR ([14]; Table 5, polymyxin-resistant): 16 µg/mL (≈ 14.5 µM); MIC, P. aeruginosa PA9704, PmxR [15]: >32 µg/mL
CCCCCCC[C@@H](O)CC(=O)N[C@@H](CCN)C(=O)N[C@H]1CCNC(=O)[C@H](CC(C)C)NC(=O)[C@H](CCN)NC(=O)[C@H](CCN)NC(=O)[C@H](C)NC(=O)[C@@H](Cc2ccccc2)NC(=O)[C@H](CCN)NC1=O [compound 5563, 3(R)OH-nC9CO-L-Dab-cyc[L-Dab-L-Dab-D-Phe-L-Ala-L-Dab-L-Dab-L-Leu]] ({Decanoyl(3R-OH)}-[Dab][Dab][Dab][dF]A[Dab][Dab]L; lactam 2-C) | > 300 µM | 158 µM | > 300 µM | >32 µg/mL | 16 µg/mL (≈ 16 µM) | 32 µg/mL (≈ 31.9 µM) | 32 µg/mL (≈ 31.9 µM) | 16 µg/mL (≈ 16 µM) | 32 µg/mL (≈ 31.9 µM) | 2 µg/mL (≈ 2 µM) | >32 µg/mL | >32 µg/mL | >32 µg/mL | >32 µg/mL | 32 µg/mL (≈ 31.9 µM) | 
